Source: patent publication US8759364B2, “Methods of treating bone mass diseases” (The Trustees of Columbia University in the City of New York, priority 2008, dated 2014)
Values joined by “and” are separate entries in the source; they are usually repeats but may differ in a detail not shown here. Equal values may be shown once. Read-outs that look alike come from different tables or passages of the source.

Tests used:
rb 5-HT1B receptors = rb 5-HT1B receptors (Oryctolagus cuniculus, UniProt P49144); settings: cited from earlier work
[1] = test system: peripheral serotonin production; assay: Pilot study of tryptophan hydroxylase inhibitors on peripheral serotonin production in ovariectomized mice, Example 12; assay type: in vivo; settings: for effect on serotonin levels: oral (gavage) twice a day, dose not given
Experimental: (§1) 6-week old C57Bl/6 inbred female mice, weighing 12-14 g, were used in the experiments. Animals were housed under 12 h light/12 h dark conditions in a room with controlled temperature (22° C.) and humidity (60%). Mice had ad libitum access to food and water, and were used after a minimum of 4 days of acclimatization to the housing conditions. All experiments were conducted following Columbia University Guidelines for the Animal Use and Care of laboratory mice.
Animals were separated into different groups one day prior to the experiments. Mice were ovariectomized (OVX) under anaesthesia (Avertin). Compounds were fed orally (Gavage) twice a day at 1700 h and at 1100 h for the pilot study while for the long term study compounds were given at 1700 h once a day. […] This route creates two potential barriers for the compound to reach the brain. […] Control animals received the same volume of vehicle. Blood was collected through heart puncture on isofluorane-anaesthesized animals, allowed to clot for 5 minutes on ice and then serum was separated, snap chilled in liquid nitrogen and frozen at −80° C. till analyzed. Mice were observed daily for any physical or behavioral abnormality during the course of investigation.
• Group 1: Vehicle • Group 2: Compound 1 • Group 3: Compound 2 • Group 4: Compound 3 • Group 5: Compound 4 (LP-533401) Experiment II: Effect of Compounds 1 and 4 on Protection from OVX-Induced Bone Loss Protocol 1: Gavage Feeding of the Compounds Will be Started 1 Day after OVX for 6 Weeks • Group 1: Sham treatment • Group 2: OVX • Group 3: OVX+Compound 1 (250 mg/kg) • Group 4: OVX+Compound 1 (500 mg/kg) • Group 5: OVX+Compound 4 (250 mg/kg) Protocol 2: Gavage Feeding of the Compounds Will be Started 2 Weeks after OVX for 6 Weeks • Group 1: Sham treatment • Group 2: OVX • Group 3: OVX+Compound 1 (250 mg/kg) • Group 4: OVX+Compound 1 (500 mg/kg) • Group 5: OVX+Compound 4 (250 mg/kg) Protocol 3: Gavage Feeding of the Compounds Will be Started 4 Weeks after OVX for 6 Weeks • Group 1: Sham treatment • Group 2: OVX • Group 3: OVX+Compound 1 (250 mg/kg) • Group 4: OVX+Compound 1 (500 mg/kg) • […] Serotonin Measurement in Serum
The Serotonin ELISA kit obtained from the Fitzgerald company was used to measure derivatized serotonin from serum. Derivatization is part of the sample preparation. Serotonin present in the serum was first quantitatively acylated using the acylation reagent into N-Acylserotonin. The principle of the assay is based on competitive ELISA, wherein serotonin that is bound to the solid phase of the plate and the N-acylserotonin compete for the fixed number of antiserum binding sites. When the reaction is in equilibrium, free antigen and free antigen-antiserum complexes are removed by washing. The antibody bound to the solid phase serotonin is then detected by anti-rabbit/peroxidase. The substrate TMB/Peroxidase reaction is read at 450 nm. The amount of antibody bound to the solid phase serotonin is inversely proportional to the concentration of serotonin in the sample.
We used Catechol-3,6-bis methyleneiminodiacetic acid [(CBMIDA) Compound 1: basic structure is a EDTA-like compound and the catechol ring is at the center)] synthesized at the Columbia University Chemistry division and para-Chlorophenylalanine (pCPA) obtained from Sigma Aldrich Corp. for our experiments. Compounds were dissolved with twice molar solution of NaHCO3 in water and given to mice orally at 250 and 500 mg/kg/dose. Compounds 2 and 3 were dissolved in water.

primary osteoblasts = assay: Real-time PCR of cyclin and osteoblast-specific gene expression in primary osteoblasts treated with serotonin; assay type: cell-based, mouse; settings: serotonin 50 to 100 μM, 24 hr, versus vehicle, FIG. 8B
Experimental: To test whether serotonin regulates the expression of cyclins in osteoblasts, a real-time PCR analysis of cyclin expression in primary osteoblasts treated with serotonin or vehicle was performed. […] In contrast, expression of Runx2, Osteocalcin and Type I collagen was not modified (FIG. 8B).
Calvaria osteoblasts were extracted by triple collagenase/trypsine digestion from 4 day-old CD1 pups and differentiated with ascorbic acid as previously described (Ducy et al., 2000, Cell 100:197-207).
(§2) Osteoblasts were treated in serum-free medium with vehicle or Serotonin (50 to 100 μM, Sigma) for 24 hr. Total RNA were extracted with Trizol (Invitrogen). cDNA were generated using the ABI Reverse transcriptase system and random hexanucleotide primers. Real-time PCR was performed using superarray primers on a Stratagene real time PCR cycler and Actin expression was used as endogenous control. Chromatin immunoprecipitation assays (ChIP) were performed by standard procedures using primary osteoblasts. Microarray analysis was performed as described previously (Glass et al., 2005, Dev. Cell 8:751-764).

CREB = CREB phosphorylation (Western blot) and CREB binding to Cyclin D1 promoter (ChIP) in primary osteoblasts treated with serotonin; assay type: cell-based, mouse
Experimental: Decreased expression of Cyclin D1 is a major feature of both Lrp5 deficiency and serotonin treatment of osteoblasts (FIGS. 1 and 8). One transcription factor that is known to modulate the expression of cyclin genes and is expressed in osteoblasts is CREB (Fu et al., 2005, Cell 122:803-815). Therefore, whether serotonin could decrease CREB activity in these cells was tested. […] Furthermore, a CREB binding site in the Cyclin D1 mouse promoter was identified and it was shown using ChIP assays that serotonin decreased binding of CREB to this promoter (FIG. 9B). These two observations raise the hypothesis that CREB could be mediating serotonin action on osteoblasts.
as §2
Osteoblasts were treated in serum-free medium with vehicle or Serotonin (50 to 100 μM, Sigma) for 24 hr. […]

[2] = test system: rat calvarial-derived osteoblasts; settings: in vitro; cited from earlier work
peripheral serotonin = assay: Effect of oral CBMIDA on peripheral serotonin production in mice (serum serotonin ELISA), Example 1; assay type: in vivo; settings: for reduction of peripheral serotonin measured in serum: 4 week old mice
Experimental: The ability of selective TPH1 inhibitor CBMIDA to reduce peripheral serotonin measured in serum was tested. Either 250 or 500 mg/kg doses of CBMIDA were administered orally twice in 20 hours to 4 week old mice, 4-5 mice per group. As a control, some mice were untreated and some received 250 mg/kg pCPA orally. […] CBMIDA has been reported to be an EDTA analog that increases osteoid volume in beagle dogs and induces proliferation of rat calvarial-derived osteoblasts in vitro (Xie, et al., Bioorganic & Medicinal Chemistry Letters 15 (2005) 3267-3270, incorporated herein by reference in its entirety).
as §1, with “One month” for “6-week”, “male” for “female”, “15-16 g” for “12-14 g,”
Before the experiments, animals were separated into individual cages one day prior to the experiment. Compounds were fed orally (gavage) to the mouse, calculated according to the weight of the mouse, twice a day at 1700 h and at 1100 h. […] This route created two potential barriers for the compound to reach the brain. […] Control animals received the same volume of vehicle. Blood was collected through heart puncture on isofluorane-anaesthesized animals and allowed to clot for 5 minutes on ice. The serum was separated, snap chilled in liquid nitrogen and frozen at −80° C. till analyzed. Brainstems from all the animals were collected and processed for brain serotonin measurement through HPLC.
The Serotonin ELISA kit obtained from the Fitzgerald company was used to measure derivatized serotonin from serum. Derivatization is part of the sample preparation. Serotonin present in the serum was first quantitatively acylated into N-Acylserotonin using the acylation reagent. The principle of the assay is based on competitive ELISA, wherein serotonin that is bound to the solid phase of the plate and the N-acylserotonin compete for the fixed number of antiserum binding sites. When the reaction is in equilibrium, free antigen and free antigen-antiserum complexes are removed by washing.
The antibody bound to the solid phase serotonin is then detected using antirabbit/peroxidase. The substrate TMB/Peroxidase reaction is read at 450 nm. The amount of antibody bound to the solid phase serotonin is inversely proportional to the concentration of serotonin in the sample.
Catechol-3,6-bis methyleneiminodiacetic acid (CBMIDA) (basic structure is an EDTA-like compound and the catechol ring is at the centre) synthesized at the Columbia University Chemistry division, and para-chlorophenylalanine (pCPA) obtained from Sigma Aldrich Corp. were used. Each compound was dissolved with twice molar solution of NaHCO3 in water and given to mouse orally at 250 and 500 mg/kg/dose.

osteoid volume = settings: beagle dogs; cited from earlier work
[3] = given orally, cited from earlier work
brain-derived serotonin = settings: mice, twice per day over 3-4 days, about 30-90 mg/kg; cited from earlier work
[4] = test system: Serotonin levels in the small intestine; settings: mice, twice per day over 3-4 days, about 30-90 mg/kg; after six consecutive doses; cited from earlier work

rb 5-HT1B receptors, sequence (P49144 whole entry): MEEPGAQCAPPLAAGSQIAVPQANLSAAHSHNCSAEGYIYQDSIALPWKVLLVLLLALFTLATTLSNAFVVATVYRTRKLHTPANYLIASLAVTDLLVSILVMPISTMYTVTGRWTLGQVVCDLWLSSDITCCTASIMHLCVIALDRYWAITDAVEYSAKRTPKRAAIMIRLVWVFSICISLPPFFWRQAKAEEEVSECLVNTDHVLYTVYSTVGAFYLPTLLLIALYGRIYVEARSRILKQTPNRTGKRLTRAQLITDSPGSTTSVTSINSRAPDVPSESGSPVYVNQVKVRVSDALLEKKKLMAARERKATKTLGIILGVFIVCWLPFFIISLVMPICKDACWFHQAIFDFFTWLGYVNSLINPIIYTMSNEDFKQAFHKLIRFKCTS

SMILES: O=C(c1ccc(F)cc1)C1CCN(CCn2c(=O)[nH]c3ccccc3c2=O)CC1 [ketanserin]
- behaviour as antagonist (rb 5-HT1B receptors): as silent, competitive

SMILES: CN1CCc2cccc3c2[C@H]1Cc1cc(CN(CC(=O)O)CC(=O)O)c(O)c(O)c1-3 [Compound 3]
- effect on serotonin levels ([1]; pilot study): decreased the serotonin levels dramatically
- toxicity to the animals (looked very lethargic and sick) ([1]; oral, pilot study): toxic

SMILES: NCCc1c[nH]c2ccc(O)cc12 [serotonin, 5-hydroxytryptamine]
- expression of Cyclin D1 and D2 (primary osteoblasts): decreased
- expression of Runx2, Osteocalcin and Type I collagen (primary osteoblasts): not modified
- CREB phosphorylation (CREB; FIG. 9A): significantly decreased
- binding of CREB to the Cyclin D1 promoter (ChIP) (CREB; FIG. 9B): decreased

SMILES: O=C(O)CN(CC(=O)O)Cc1ccc(CN(CC(=O)O)CC(=O)O)c(O)c1O [CBMIDA, Catechol-3,6-bis methyleneiminodiacetic acid]
- proliferation of osteoblasts [2]: induces
- reduction of peripheral serotonin measured in serum (peripheral serotonin; 250 mg/kg orally twice in 20 hours): ~45%
- decrease of serotonin serum levels (peripheral serotonin; 250 mg/kg, oral, compared with 500 mg/kg, FIG. 11): lesser extent
- reduction of peripheral serotonin measured in serum (peripheral serotonin; 500 mg/kg orally twice in 20 hours): about 80%
- serotonin serum levels decreased to % below normal (peripheral serotonin; 500 mg/kg twice daily, oral, FIG. 11): 80%
- dose response of serum serotonin reduction (peripheral serotonin; 250 and 500 mg/kg versus control animals): dose response curve
- peripheral serotonin upon oral feeding (peripheral serotonin; FIG. 11 legend): reduces
- osteoid volume (osteoid volume): increases
- share of the oral amount transported into the circulation (blood) [3]: 3-5% and 5-10%
- share of the oral amount transported into the circulation (blood) ([3]; listed as Compound 1): 5-10%
- decrease of serotonin serum levels ([1]; 250 mg/kg, oral, compared with 500 mg/kg): lesser extent
- serotonin serum levels decreased to % below normal ([1]; 500 mg/kg twice daily, oral, FIG. 15): 80%
- dose response of serotonin levels ([1]; different doses compared to control animals, FIG. 15): dose response curve

SMILES: CCOC(=O)[C@@H](N)Cc1ccc(-c2cc(OC(c3ccc(-c4cccc(F)c4)cc3)C(F)(F)F)nc(N)n2)cc1 (stereo partly drawn) [LP-615819]
- brain-derived serotonin (brain-derived serotonin): unchanged
- Serotonin levels in the small intestine [4]: significantly lowered

SMILES: CSc1ccc2c(c1)C(N1CCN(C)CC1)Cc1ccccc1S2 (stereo not drawn) [methiothepin]
- behaviour as antagonist (rb 5-HT1B receptors): as silent, competitive

SMILES: NC(=O)CN(CC(=O)O)Cc1ccc(CN(CC(N)=O)CC(=O)O)c(O)c1O [Compound 2]
- effect on serotonin levels ([1]; pilot study): minimal effect
